{"source": "paper PMC10229426", "about": "“An optimized bioluminescent substrate for non-invasive imaging in the brain” (Nature Chemical Biology, 2023)", "key": {"[1]": {"details": "probably due to acidity of the solution; cited from earlier work"}, "[2]": {"test_system": "AkaLuc", "assay": "Bioluminescence imaging of transgenic mice expressing AkaLuc in the brain", "format": "in vivo, mouse", "details": "3.0- or 1.3-µmol doses", "excerpt": "(§1) Transgenic reporter mice with LSL-CAG-luciferase (Antares, FLuc or AkaLuc) inserted at the H11 locus (H11P) were generated by φC31-mediated recombination in blastocysts[48] by the Stanford Transgenic, Knockout and Tumor Model Center. For substrate comparisons, 2- to 4-month-old transgenic mice doubly hemizygous for a Camk2a-cre (Jackson Laboratory, 005359), Vgat-IRES-cre (Jackson Laboratory), Vglut2-IRES-cre (Jackson Laboratory, 016963) or Alb-cre (Jackson Laboratory, 003574) driver and a CAG-LSL-Antares, CAG-LSL-AkaLuc or CAG-LSL-FLuc reporter were anesthetized by inhalation of isoflurane for 5 min. An electric shaver was used to remove scalp hair in Camk2a-cre, Vglut2-IRES-cre or Vgat-IRES-cre mice or abdominal hair in Alb-cre mice. Nair depilatory cream (Church and Dwight) was then applied to the shaved area for 1 min, and remaining hair was removed with a piece of sterile gauze. […]\n(§2) For mice expressing Antares, indicated amounts of Fz were dissolved in 480 µl of a PEG-300-based formulation consisting of 10% glycerol, 10% ethanol, 10% hydroxypropylcyclodextrin and 35% PEG-300 in water, or indicated amounts of lyophilized Fz analogs with P-407 vehicle were reconstituted in 150–500 µl of DPBS buffer. […] Integrated luminescence was quantified using the Fiji version of the ImageJ program (NIH)[49], with further statistical analysis performed in GraphPad Prism (version 9.0.0)."}, "[3]": {"target": "T1, Antares luciferase (Oplophorus gracilirostris, UniProt Q9GV45, A31E/A60N/A81I/F95D/I117V/K70R/L54V/L99Q/M102K/N193R/P142E/Q151K/Q38R/Q45L/V71I/Y165I)", "T1 construct": "expressed in transfected cells; host or cells: transgenic mice with CAG-LSL-Antares at the H11 locus, crossed to Cre driver lines (neurons or liver)", "T1 sequence (Q9GV45 other isoform, or with tags, fused parts or gaps with the stated changes)": "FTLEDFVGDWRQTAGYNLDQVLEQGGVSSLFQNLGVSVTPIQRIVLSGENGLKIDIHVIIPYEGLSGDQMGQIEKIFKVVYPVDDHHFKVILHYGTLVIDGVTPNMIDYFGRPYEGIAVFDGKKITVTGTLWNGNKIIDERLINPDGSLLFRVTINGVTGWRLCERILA", "assay": "Non-invasive detection of Antares in the liver (Alb-cre driver)", "format": "in vivo, mouse", "details": "1.3 µmol i.p.", "excerpt": "as §1, §2"}, "[4]": {"target": "T1, Antares luciferase", "assay": "Bioluminescence imaging of transgenic mice for substrate comparison (brain, Cre-driven Antares)", "format": "in vivo, mouse", "excerpt": "Transgenic reporter mice with LSL-CAG-luciferase (Antares, FLuc or AkaLuc) inserted at the H11 locus (H11P) were generated by φC31-mediated recombination in blastocysts[48] by the Stanford Transgenic, Knockout and Tumor Model Center. For substrate comparisons, 2- to 4-month-old transgenic mice doubly hemizygous for a Camk2a-cre (Jackson Laboratory, 005359), Vgat-IRES-cre (Jackson Laboratory), Vglut2-IRES-cre (Jackson Laboratory, 016963) or Alb-cre (Jackson Laboratory, 003574) driver and a CAG-LSL-Antares, CAG-LSL-AkaLuc or CAG-LSL-FLuc reporter were anesthetized by inhalation of isoflurane for 5 min. An electric shaver was used to remove scalp hair in Camk2a-cre, Vglut2-IRES-cre or Vgat-IRES-cre mice or abdominal hair in Alb-cre mice. Nair depilatory cream (Church and Dwight) was then applied to the shaved area for 1 min, and remaining hair was removed with a piece of sterile gauze. The area was then rinsed with DPBS and cleaned with 70% ethanol with a piece of sterile gauze.\nFor mice expressing Antares, indicated amounts of Fz were dissolved in 480 µl of a PEG-300-based formulation consisting of 10% glycerol, 10% ethanol, 10% hydroxypropylcyclodextrin and 35% PEG-300 in water, or indicated amounts of lyophilized Fz analogs with P-407 vehicle were reconstituted in 150–500 µl of DPBS buffer. For mice expressing FLuc, indicated amounts of D-luciferin were dissolved in PBS. For mice expressing AkaLuc, 3 μmol (1.0 mg) of AkaLumine-HCl (Sigma-Aldrich) was dissolved in 150 μl of 0.9% NaCl. Substrates were then injected into the peritoneal cavity in the left lower quadrant, with the maximum injectable volume at 480 µl. Immediately after substrate injection, bioluminescent images were acquired in an Ami HT bioluminescence imaging system running Aura software version 3.1 or 4.0 (Spectral Instruments Imaging) for 15–30 min at intervals of 1 min. For comparing substrates at 1.3 µmol, the following imager settings were used: emission filter open, field of view of 25 cm, f-stop of 1.2, binning of 2 × 2 and exposure time of 2 s. For comparison with >1.3-µmol substrates, the following settings were used: emission filter open, field of view of 25 cm, f-stop of 1.2, binning of 1 × 1 and exposure time of 1 s. Pseudocolor images and intensity scale bars were generated with Aura software. Integrated luminescence was quantified using the Fiji version of the ImageJ program (NIH)[49], with further statistical analysis performed in GraphPad Prism (version 9.0.0)."}, "[5]": {"assay": "Solubility in aqueous formulation with poloxamer-407 (P-407)", "format": "physicochemical", "procedure": "Stock samples of solid formulated Fz analogs were prepared using the following protocol. First, P-407 (Pluronic F127) was placed into a screw-cap glass vial. The polymer was then heated to 75 °C in a water bath until melted. Fz analogs dissolved in ethanol were added to the hot polymer, mixing well with a thin spatula. Additional rinses of Fz analogs in ethanol were added to the hot polymer for quantitative transfer. The solvent was then removed under vacuum. This concentrated sample was diluted with water to make a dispensing mixture of 4–9 mM Fz analogs in water. Next, this aqueous stock was aliquoted into glass vials, frozen and lyophilized overnight to give a yellow cake. For i.p. injection into mice, DPBS (Corning, 21-031-CV) was added to the vial and rocked to create a clear solution."}, "[6]": {"assay": "Toxicity in mice: necropsy and histopathology", "format": "in vivo, C57BL/6 mice", "design": "key to BMH, brain multifocal hemorrhage score / HN, hepatocellular necrosis score / RTD, renal tubular dilation score / RTDR, renal tubular degeneration and regeneration score: 0: absent; 1: minimal; 2: mild; 3: moderate; 4: severe; key to HMNH, heart myocardial necrosis and hemorrhage score: 0: no lesions; 1: <5% of myocardium affected; 2: 5-10% affected; 3: 10-25% affected; 4: >25% affected; key to LC, Liver capsule score: 0: normal; 1: segmental subcapsular necrosis +/- neutrophilic infiltrate; Total organ score: scale not given here", "procedure": "(§3) Male C57BL/6 mice of 2 months of age were killed by CO2 asphyxiation and cardiac exsanguination. All mice were weighed, and a complete gross examination of the external and internal organs was performed. […] Formalin-fixed tissues were processed routinely, embedded in paraffin, sectioned at 5 μm and stained with hematoxylin and eosin. All slides were blindly evaluated for histologic treatment-related effects (Supplementary Table 1) by a board-certified veterinary pathologist."}, "[7]": {"assay": "Toxicity in mice: necropsy and histopathology", "format": "in vivo, C57BL/6 mice", "design": "key: 0: absent; 1: minimal; 2: mild; 3: moderate; 4: severe", "details": "1 day, 4.2 µmol, 20 mg P-407; individual mice", "procedure": "as §3"}, "[8]": {"details": "i.p., CAG-LSL-Antares x Vgat-IRES-cre mice"}, "[9]": {"details": "1 day, 4.2 µmol, 20 mg P-407, individual mice"}}, "note": "Values joined by “and” are separate entries in the source; they are usually repeats but may differ in a detail not shown here. Equal entries are not always repeated. “Also recorded” adds a separate entry of the source.", "data": [{"molecule": "CN(C)c1ccc(/C=C/C=C/C2=N[C@@H](C(=O)O)CS2)cc1", "note": "[AkaLumine]", "values": [{"measurement": "toxicity of administered solution", "setting": "[1]", "result": "noticeable toxicity of the Akalumine solution to the skin and heart"}, {"measurement": "duration of brain signal relative to Antares–CFz", "setting": "[2]", "result": "more sustained signal"}]}, {"molecule": "Nc1cccc(-c2cn3c(=O)c(Cc4ccco4)nc-3c(Cc3ccccc3F)[nH]2)c1F", "note": "[FFz, fluorofurimazine, reference compound]", "values": [{"measurement": "liver signal, 6 versus FFz", "setting": "[3]", "result": "brighter in the liver"}, {"measurement": "brain signal distribution", "setting": "[4]; Antares driven by Camk2a-cre", "result": "signal predominantly from the hindbrain"}, {"measurement": "brain signal distribution", "setting": "[4]; [8]", "result": "low brightness from the forebrain, higher signal from the hindbrain, and highest signal from regions in the head outside the brain"}]}, {"molecule": "O=c1c(Cc2ccco2)nc2c(Cc3ccccc3)[nH]c(-c3cccc(O)c3)cn1-2", "note": "[HFz, hydrofurimazine, reference compound]", "values": [{"measurement": "brain signal brightness relative to Fz", "setting": "[4]; [8]", "result": "more than tenfold dimmer"}, {"measurement": "brain signal distribution", "setting": "[4]; [8]", "result": "signal from the brain similar to Fz"}]}, {"molecule": "Cc1ccc(Cc2nc3c(Cc4ccccc4)[nH]c(-c4cccc(F)c4F)cn-3c2=O)o1", "note": "[compound 10]", "values": [{"measurement": "relative solubility in aqueous formulation with P-407", "setting": "[5]", "result": "reduced solubility"}, {"measurement": "solubilization of 4.2 µmol in P-407 formulation", "setting": "[5]; 4.2 µmol", "result": "incomplete solubilization"}]}, {"molecule": "Cc1ccc(Cc2nc3c(Cc4ccccc4F)[nH]c(-c4cccc(F)c4F)cn-3c2=O)o1", "note": "[compound 13]", "values": [{"measurement": "toxicity after a single i.p. injection", "setting": "[6]; 4.2 µmol with 20 mg P-407, one injection", "result": "severe kidney pathology and weight loss; also recorded: more toxic than 6"}, {"measurement": "BMH, brain multifocal hemorrhage score", "setting": "[6]; [9]", "result": 0}, {"measurement": "HMNH, heart myocardial necrosis and hemorrhage score", "setting": "[6]; [9]", "result": 0}, {"measurement": "HN, hepatocellular necrosis score", "setting": "[6]; [9]", "result": 0}, {"measurement": "LC, Liver capsule score", "setting": "[6]; [9]", "result": 0}, {"measurement": "RTD, renal tubular dilation score", "setting": "[6]; [9]", "result": "2 (5%–25% of tubules affected) (2×) and 3 (25%–50% of tubules affected)"}, {"measurement": "RTDR, renal tubular degeneration and regeneration score", "setting": "[6]; [9]", "result": "3 (25%–50% of tubules affected) (2×) and 2 (5%–25% of tubules affected)"}, {"measurement": "SRPHMV, splenic red pulp histiocytosis with microvesicular vacuolation score", "setting": "[6]; [9]", "result": 0}, {"measurement": "Total organ score", "setting": "[6]; [9]", "result": "5 and 4 and 6"}, {"measurement": "∆ weight", "setting": "[6]; [9]", "result": "–7.9%; also recorded: –7.2%; also recorded: –6.7%"}, {"measurement": "brain brightness relative to 6", "setting": "[4]; 1.3 µmol i.p. with 10 mg P-407", "result": "brighter"}, {"measurement": "brain brightness relative to 6 (factor)", "setting": "[4]; 1.3 µmol i.p. with 10 mg P-407, Vglut2-IRES-cre or CaMKIIα-cre", "result": "1.5–2.0"}, {"measurement": "HPMC, heart perivascular myxomatous change score", "setting": "[7]", "result": 0}, {"measurement": "HT, heart telangiectasia score", "setting": "[7]", "result": 0}, {"measurement": "KCHMV, Kupffer cell hyperplasia and microvesicular vacuolation score", "setting": "[7]", "result": 0}]}]}
